Laboratory results: patent US12048703B2, “Use of small molecule FAK activators to promote mucosal healing” (Regents of the University of Minnesota, priority 2018, dated 2024)
“Also recorded” adds a separate entry of the source. Each block holds one molecule with its values, some of them ahead of it.

How the values were obtained:
[1] = test system: Caco-2 monolayers; experiment: Closure of circular wounds in Caco-2 monolayers on collagen I; format: cell-based, human; conditions: for wound closure rate: 100 μM, Caco-2 on Collagen-I; for monolayer wound closure: Caco-2 on collagen I; for stimulation of wound closure under FAK blockade: with FAK inhibitor PF-573328 (10 uM); for Caco-2 monolayer wound closure: concentration not given
[2] = target: T1, FAK (Homo sapiens, UniProt Q05397); experiment: FAK activation (FAK-Tyr-397 phosphorylation) by western blotting in Caco-2 cells in suspension; format: cell-based; conditions: for basal FAK-Tyr-397 phosphorylation: ambient pressure, varying concentrations; for FAK activation (FAK-Tyr-397 phosphorylation): Caco-2 cells; for FAK phosphorylation: 100 pm-1 nM
T1 construct: endogenous in cells; host or cells: Caco-2
T1 sequence (Q05397 whole entry): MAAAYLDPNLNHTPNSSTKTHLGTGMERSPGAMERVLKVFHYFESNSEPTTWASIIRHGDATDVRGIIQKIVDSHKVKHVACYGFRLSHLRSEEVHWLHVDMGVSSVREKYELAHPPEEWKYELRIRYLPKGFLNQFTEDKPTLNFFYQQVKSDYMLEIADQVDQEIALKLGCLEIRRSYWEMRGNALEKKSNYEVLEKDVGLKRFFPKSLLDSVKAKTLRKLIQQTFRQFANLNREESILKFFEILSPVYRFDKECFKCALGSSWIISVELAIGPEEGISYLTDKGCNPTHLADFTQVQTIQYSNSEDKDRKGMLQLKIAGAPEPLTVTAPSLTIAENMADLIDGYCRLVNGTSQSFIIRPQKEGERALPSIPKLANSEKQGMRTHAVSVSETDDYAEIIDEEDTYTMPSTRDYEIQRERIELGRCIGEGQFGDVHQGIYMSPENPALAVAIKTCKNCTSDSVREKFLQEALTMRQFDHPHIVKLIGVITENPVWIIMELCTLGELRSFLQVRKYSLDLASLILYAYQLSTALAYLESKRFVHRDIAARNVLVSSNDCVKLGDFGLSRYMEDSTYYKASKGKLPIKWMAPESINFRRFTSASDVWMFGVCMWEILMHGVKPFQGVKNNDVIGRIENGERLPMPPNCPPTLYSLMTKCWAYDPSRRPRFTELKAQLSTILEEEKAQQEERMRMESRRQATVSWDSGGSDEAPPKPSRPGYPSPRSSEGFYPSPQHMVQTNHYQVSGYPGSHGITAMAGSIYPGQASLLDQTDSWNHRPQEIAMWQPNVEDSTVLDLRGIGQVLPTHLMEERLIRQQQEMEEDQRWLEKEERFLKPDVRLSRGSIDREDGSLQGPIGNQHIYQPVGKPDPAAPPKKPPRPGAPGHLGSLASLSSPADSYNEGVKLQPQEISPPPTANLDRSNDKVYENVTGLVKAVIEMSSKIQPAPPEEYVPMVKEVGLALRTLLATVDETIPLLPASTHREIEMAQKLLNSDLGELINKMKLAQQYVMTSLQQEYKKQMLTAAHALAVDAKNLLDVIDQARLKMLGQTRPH
Excerpt: FAK-Y397 western blotting: For studies of FAK activation, cells were maintained at ambient or increased pressure in bacteriologic plastic dishes pacificated with heat-inactivated bovine serum albumin to prevent adhesion and avoid adhesion-associated background FAK activation. Cells were lysed in lysis buffer, resolved by 10% SDS-PAGE, transferred to nitrocellulose and blotted with antibody to Tyr-397-phosphorylated FAK (Rabbit monoclonal antibody, ab81298, Abcam, USA) and anti-rabbit 680 (LI-COR, USA), before quantitation using Kodak Scientific Imaging Systems 1D, V.3.5.4 within the linear range of exposure (Oncotarget 2017). Total FAK (Primary antibody: Anti-FAK, clone 4.47 Merck, Germany and secondary antibody: anti-mouse 800, LI-COR, USA) served as a protein loading control.

[3] = test system: small bowel ulcer; experiment: Indomethacin small bowel ulcer healing in mice; format: in vivo; conditions: 4 days after indomethacin 15 mg/kg subQ, listed as D3
Method: (§1) (B) Indomethacin ulcer healing. 15 mg/kg of indomethacin was administered subcutaneously, and treatment started with vehicle of drug 1 day after injury. At 4 days, ulcer area was calculated after sacrifice by morphometric analysis of photographs of the entire small bowel.

[4] = test system: ileal ulcer; experiment: Serosal acetic acid ileal ulcer healing in mice; format: in vivo; conditions: vs DMSO vehicle, listed as D3
Method: An in vivo study was conducted utilizing C57BL6 Male/Female>8-week-old mice. During laparotomy under anesthesia, a filter paper soaked with 75% Acetic Acid was applied to ileal serosa for 15 seconds, a technique that produces reproducible mucosal ulcers at day 4 without opening the bowel. Flanigan T L et al., Am J Surg. 2008 November; 196(5): 683-689. doi:10.1016/j.amjsurg.2008.07.016.
At 1 day after ulcerogenesis, an intraperitoneal (IP) administration of Q6H-DMSO (2.4 ul+97.6 ul saline) was performed in a control sample, along with an IP injection of Q6H—Compound 3 (10 ug/ul) (2.4 ul+97.6 ul saline) in a test sample.
At 4 days after ulcerogenesis (day 3 after starting administration), the ulcer area was measured in each. The observed ulcer area and corresponding wound closure rate in vivo further evidences the effect of Compound 3.
(§2) (A) The effects of dosing of compound D3 on murine intestinal ulcer healing was investigated. Brief serosal application of a filter paper disk soaked in dilute acetic acid was used to create well demarcated reproducible mucosal small bowel ulcerations without opening the bowel (47-49). In one study such murine ulcers were created, allowed 24 hours for recovery and ulcer formation, and then compound D3 was administered at 900 ug/kg Q6H for three days before sacrifice. […] Males and females responded similarly.

[5] = Body weight in indomethacin ulcer mice; format: in vivo; conditions: indomethacin model, trend not statistically significant
Method: as §1

[6] = target: T2, Pyk2 (also called FAK2) (Homo sapiens, UniProt Q14289); experiment: Pyk2 activation (selectivity); format: cell-based; conditions: up to 1000 nm (100× therapeutic threshold); listed as D3
T2 construct: endogenous in cells
T2 sequence (Q14289 whole entry): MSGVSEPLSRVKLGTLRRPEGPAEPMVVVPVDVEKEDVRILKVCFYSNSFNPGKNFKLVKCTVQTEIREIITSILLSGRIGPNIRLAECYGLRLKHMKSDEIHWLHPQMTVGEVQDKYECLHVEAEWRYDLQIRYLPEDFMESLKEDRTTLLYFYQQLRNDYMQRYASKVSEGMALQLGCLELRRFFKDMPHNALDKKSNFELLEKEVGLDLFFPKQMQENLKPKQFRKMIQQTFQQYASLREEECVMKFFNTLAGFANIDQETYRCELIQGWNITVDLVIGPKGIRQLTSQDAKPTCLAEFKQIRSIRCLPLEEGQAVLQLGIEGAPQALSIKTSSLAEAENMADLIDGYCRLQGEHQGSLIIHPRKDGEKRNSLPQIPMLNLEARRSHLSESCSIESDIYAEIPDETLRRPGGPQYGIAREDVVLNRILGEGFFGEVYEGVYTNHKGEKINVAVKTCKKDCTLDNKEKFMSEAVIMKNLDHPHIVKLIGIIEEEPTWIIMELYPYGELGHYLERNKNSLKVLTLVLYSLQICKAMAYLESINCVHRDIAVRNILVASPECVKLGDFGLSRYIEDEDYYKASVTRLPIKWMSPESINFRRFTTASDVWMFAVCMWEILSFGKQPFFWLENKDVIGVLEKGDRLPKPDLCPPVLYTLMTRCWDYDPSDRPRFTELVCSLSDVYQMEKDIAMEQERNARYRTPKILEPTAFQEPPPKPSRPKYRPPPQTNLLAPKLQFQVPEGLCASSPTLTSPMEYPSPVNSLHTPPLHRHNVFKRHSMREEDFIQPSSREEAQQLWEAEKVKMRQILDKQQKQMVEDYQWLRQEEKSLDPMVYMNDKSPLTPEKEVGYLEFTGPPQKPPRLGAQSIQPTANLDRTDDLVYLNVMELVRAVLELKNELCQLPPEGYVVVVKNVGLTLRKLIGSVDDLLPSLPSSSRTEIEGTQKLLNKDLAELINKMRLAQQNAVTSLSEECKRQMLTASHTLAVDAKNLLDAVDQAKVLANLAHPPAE

[7] = Toxicity assessment in acetic acid ulcer mice (weight, serum chemistry, histology); format: in vivo; conditions: acetic acid ulcer model
Method: as §2

[8] = target: T3, Src (Homo sapiens, UniProt P12931); experiment: Src activation (selectivity); format: cell-based; conditions: up to 1000 nm (100× therapeutic threshold); listed as D3
T3 construct: endogenous in cells
T3 sequence (P12931 whole entry): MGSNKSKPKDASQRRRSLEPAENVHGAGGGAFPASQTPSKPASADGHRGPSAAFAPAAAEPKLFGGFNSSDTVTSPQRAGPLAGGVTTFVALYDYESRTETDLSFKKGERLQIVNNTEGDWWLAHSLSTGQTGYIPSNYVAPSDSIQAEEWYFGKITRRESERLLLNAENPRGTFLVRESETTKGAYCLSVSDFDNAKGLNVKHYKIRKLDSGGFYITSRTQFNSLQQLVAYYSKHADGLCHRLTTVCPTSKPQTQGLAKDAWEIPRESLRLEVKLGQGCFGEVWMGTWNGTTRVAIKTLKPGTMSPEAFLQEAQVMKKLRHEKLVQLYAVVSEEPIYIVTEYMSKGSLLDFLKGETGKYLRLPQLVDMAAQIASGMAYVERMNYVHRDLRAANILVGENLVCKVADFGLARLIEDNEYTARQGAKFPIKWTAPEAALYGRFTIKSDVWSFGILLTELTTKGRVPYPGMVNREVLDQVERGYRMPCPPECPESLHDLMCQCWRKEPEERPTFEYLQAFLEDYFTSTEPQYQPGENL

[9] = target: T4, PTP1B-FAK interaction (Homo sapiens, UniProt Q05397); experiment: PTP1B-FAK interaction by FAK immunoprecipitation and Western for PTP1B; format: cell-based; conditions: 10 nM; co-precipitation; listed as D3
T4 construct: endogenous in cells; host or cells: Caco-2 (inferred)
T4 sequence (Q05397 whole entry): as the sequence (Q05397 whole entry) above

[10] = test system: Caco-2 cells; experiment: Caco-2 proliferation; format: cell-based, human
[11] = target: T5, SHP2 (Homo sapiens, UniProt Q06124); experiment: SHP2 dephosphorylation of a synthetic substrate; format: biochemical; conditions: for SHP2 dephosphorylation of a synthetic substrate: 100 nM, vs. positive control reaction
T5 sequence (Q06124 1-593): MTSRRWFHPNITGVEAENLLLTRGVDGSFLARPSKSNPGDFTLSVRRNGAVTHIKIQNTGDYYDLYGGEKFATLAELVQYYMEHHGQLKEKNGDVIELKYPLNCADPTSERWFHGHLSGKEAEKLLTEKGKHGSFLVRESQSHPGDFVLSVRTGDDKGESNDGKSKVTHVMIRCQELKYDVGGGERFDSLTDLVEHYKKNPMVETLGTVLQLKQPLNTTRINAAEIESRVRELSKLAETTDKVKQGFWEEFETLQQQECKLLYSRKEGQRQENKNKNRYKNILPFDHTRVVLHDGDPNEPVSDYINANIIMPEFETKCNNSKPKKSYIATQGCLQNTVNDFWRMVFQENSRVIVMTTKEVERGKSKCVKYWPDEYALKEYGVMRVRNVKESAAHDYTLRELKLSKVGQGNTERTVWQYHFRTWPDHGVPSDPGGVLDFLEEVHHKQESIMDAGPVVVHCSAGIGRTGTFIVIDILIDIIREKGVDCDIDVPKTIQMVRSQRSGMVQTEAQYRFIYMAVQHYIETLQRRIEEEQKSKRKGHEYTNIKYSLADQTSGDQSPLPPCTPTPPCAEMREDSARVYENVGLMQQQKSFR

SMILES: Cc1ccccc1[C@@H]1CCCN1C(=O)C[C@H](NC(N)=O)c1cccs1 [Compound 2, [(1S)-3-[(2S)-2-(2-methylphenyl)pyrrolidin-1-yl]-3-oxo-1-thiophen-2-ylpropyl]urea]
- wound closure rate [1]: Increased wound closure rates
- FAK activation ([2]; 1 nM): demonstrated FAK activation
- FAK activation ([2]; 10 and 100 nM): modest FAK activation
- basal FAK-Tyr-397 phosphorylation [2]: increase basal FAK-Tyr-397 phosphorylation
- FAK activation ([2]; concentration not given): activated FAK

SMILES: COc1ccc(C2CCCN2C(=O)Nc2cc(C(F)(F)F)ccc2N2CCOCC2)cc1 (stereo not drawn) [Compound 3, 2-(4-methoxyphenyl)-N-[2-(morpholin-4-yl)-5-(trifluoromethyl)phenyl]pyrrolidine-1-carboxamide]
- total small bowel ulcer area [3]: substantial and statistically significant reduction in ulcer area; also recorded: markedly decreases total small bowel ulcer area
- % wound closure between day 1 and day 4 ([4]; 900 ug/kg IP every 6 hours): markedly higher; also recorded: stimulates ulcer healing
- ileal ulcer area ([4]; day 4, 900 ug/kg IP every 6 hours for 3 days): substantially smaller ulcers; also recorded: reduces ileal ulcer area; also recorded: ulcers appear smaller
- body weight [5]: lost less weight
- wound closure when proliferation is blocked ([1]; 10 nM, 4 mM OH-urea, listed as D3): stimulates wound closure even when proliferation is blocked; also recorded: accelerates closure of circular wounds
- monolayer wound closure ([1]; 10 nM): Increased wound closure rates
- monolayer wound closure ([1]; 10 nM, listed as D3): accelerate the closure of circular wounds
- wound closure rate [1]: Increased wound closure rates
- stimulation of wound closure under FAK blockade [1]: prevents the stimulation of wound healing by Compound 3
- stimulation of wound closure under FAK blockade ([1]; listed as D3): prevented D3 stimulation of monolayer wound closure; also recorded: prevents D3 stimulation of wound closure
- Pyk2 activation [6]: does not activate Pyk2 or Src; also recorded: does not affect the kinase Pyk2
- ALT ([7]; remained within the normal range): slight elevation of ALT
- Histological evaluation of kidneys or livers ([7]; vs vehicle): no differences
- Serum creatinine ([7]; vs vehicle): not different
- postoperative body weight ([7]; vs vehicle): did not display further weight loss
- Src activation [8]: does not activate Pyk2 or Src; also recorded: does not affect
- FAK activation ([2]; 10 pM to 1 nM): activation
- FAK activation ([2]; 1 nM): demonstrated FAK activation
- FAK activation (FAK-Tyr-397 phosphorylation) ([2]; 10 nM, listed as D3): activating FAK; also recorded: activate FAK
- FAK-Y-397 phosphorylation under PTP PEST inhibition ([2]; 10 nM, PTP LYP inhibitor 540217 (50 uM), listed as D3): does not prevent D3 induction of FAK-Y-397; also recorded: stimulates Caco-2 FAK-Y-397 phosphorylation independently of PTP PEST inhibition
- FAK activation in presence of genistein ([2]; 100 ug/ml genistein, human Caco-2 cells, listed as D3): does not block D3 induction of FAK phosphorylation; also recorded: does not block D3 activation of FAK
- FAK activation, dose dependence ([2]; 10-1000 nM): dose dependently activates FAK
- specificity vs. Pyk2 ([2]; FAK activation at 10 nM vs. Pyk2): at least 100 ×
- basal FAK-Tyr-397 phosphorylation [2]: increase basal FAK-Tyr-397 phosphorylation
- FAK activation ([2]; concentration not given): especially potent
- FAK autophosphorylation in presence of FAK inhibitor PF573228 ([2]; with PF573228): does not prevent Compound 3 from increasing FAK autophosphorylation
- PTP1B-FAK interaction [9]: does not change FAK-PTPB association; also recorded: does not inhibit PTP1B-FAK interaction
- Caco-2 cell proliferation [10]: Neither Compound 1 nor Compound 3 stimulated Caco-2 cell proliferation
- Caco-2 proliferation (cell number) ([10]; 48 hours, listed as D3): cell number did not increase; also recorded: does not stimulate Caco-2 proliferation
- SHP2 dephosphorylation of a synthetic substrate [11]: neither D3 nor D4 (100 nM) blocks SHP2 dephosphorylation
- SHP2 activity in vitro ([11]; concentration not given, listed as D3): does not activate SHP2; also recorded: does not alter SHP2 activity

SMILES: COc1ccc(C2CCCN2C(=O)CC(NC(N)=O)c2ccccc2Cl)cc1OC (stereo not drawn) [Compound 4, 1-(2-chlorophenyl)-3-[2-(3,4-dimethoxyphenyl)pyrrolidin-1-yl]-3-oxopropylurea]
- monolayer wound closure ([1]; 10 nM): Increased wound closure rates; also recorded: can promote Caco-2 monolayer wound healing
- monolayer wound closure ([1]; 10 nM, listed as D4): accelerate the closure of circular wounds
- FAK activation ([2]; 1 nM): no change was observed
- FAK activation (FAK-Tyr-397 phosphorylation) ([2]; 10 nM): can activate FAK
- FAK activation (FAK-Tyr-397 phosphorylation) ([2]; 10 nM, listed as D4): activate FAK
- basal FAK-Tyr-397 phosphorylation [2]: increase basal FAK-Tyr-397 phosphorylation
- FAK activation ([2]; concentration not given): especially potent
- SHP2 dephosphorylation of a synthetic substrate [11]: neither D3 nor D4 (100 nM) blocks SHP2 dephosphorylation

SMILES: O=C(Nc1cc(C(F)(F)F)ccc1N1CCOCC1)N1CCCC1c1ccccc1 (stereo not drawn) [Compound M12]
- monolayer wound closure ([1]; 10 nM): stimulates monolayer wound closure
- FAK activation (FAK-Tyr-397 phosphorylation) ([2]; 10 nM): proved active; also recorded: activate FAK Y-397 phosphorylation

Now from value to molecule, other results behind:

- Caco-2 monolayer wound closure [1]: promote Caco-2 monolayer wound closure
- FAK phosphorylation [2]: activate FAK phosphorylation
SMILES: O=C(Nc1cc(C(F)(F)F)ccc1N1CCOCC1)N1CCCC1c1ccncc1 (stereo not drawn) [Compound M3]
- FAK activation (FAK-Tyr-397 phosphorylation) ([2]; 10 nM): proved active; also recorded: activate FAK Y-397 phosphorylation

- Caco-2 monolayer wound closure [1]: promote Caco-2 monolayer wound closure
- FAK phosphorylation [2]: activate FAK phosphorylation
SMILES: COc1ccc(C(CNC(=O)Nc2cc(C(F)(F)F)ccc2N2CCOCC2)N(C)C)cc1 (stereo not drawn) [Compound M6]
- FAK activation (FAK-Tyr-397 phosphorylation) ([2]; 10 nM): proved active; also recorded: activate FAK Y-397 phosphorylation

- Caco-2 monolayer wound closure [1]: promote Caco-2 monolayer wound closure
- FAK phosphorylation [2]: activate FAK phosphorylation
SMILES: O=C(Nc1cc(C(F)(F)F)ccc1N1CCOCC1)N1CCCC1C1CCCCC1 (stereo not drawn) [Compound M11]
- FAK activation (FAK-Tyr-397 phosphorylation) ([2]; 10 nM): proved active; also recorded: activate FAK Y-397 phosphorylation

- basal FAK autophosphorylation [2]: inhibits basal FAK autophosphorylation
SMILES: CS(=O)(=O)c1cccc(CNc2nc(Nc3ccc4c(c3)CCC(=O)N4)ncc2C(F)(F)F)c1 [PF-573228, reference compound]
- basal rates of wound healing in vitro [1]: reduces basal rates of wound healing in vitro
